Literature values, collected in patent EP0712633A1, “Pharmaceutical compositions for topical application” (Blank, Izhak, priority 1994, dated 1996).

Details: 6-carboxylfluorescein

SMILES	increase of penetration compared to the control (pretreatment of the skin with 4%)	increase of plasma levels of the dye compared with a control (0.1% w/v in conjunction with sodium dodecyl sulfate 0.05% w/v)
O=C(O)CS [calcium thioglycolate]	9 times	–
OCCS [2-mercaptoethanol]	–	40 times
